Source: patent US12281081B2, “Herbicidal compounds” (SYNGENTA CROP PROTECTION AG, priority 2019, dated 2025)

What was measured:
wheat crop plants = assay: Crop phytotoxicity comparison, post-emergence
Avena fatua (AVEFA) [1] = assay: Post-emergence herbicidal glasshouse test; format: in vivo; conditions: 250 g/Ha, evaluated after 13 days
From the text: (§1) Compounds are applied at 250 g/h. […] NT=not tested.

[2] = system: Alopecurus myosuroides (ALOMY); assay: Post-emergence herbicidal glasshouse test; format: in vivo; conditions: 250 g/Ha, evaluated after 13 days
From the text: as §1

[3] = system: Echinochloa crus-galli (ECHCG); assay: Post-emergence herbicidal glasshouse test; format: in vivo; conditions: 250 g/Ha, evaluated after 13 days
From the text: as §1

Setaria faberi (SETFA) [4] = assay: Post-emergence herbicidal glasshouse test; format: in vivo; conditions: 250 g/Ha, evaluated after 13 days
From the text: as §1

Lolium perenne (LOLPE) [5] = assay: Post-emergence herbicidal glasshouse test; format: in vivo; conditions: 250 g/Ha, evaluated after 13 days
From the text: as §1

barley crop plants = assay: Crop phytotoxicity comparison, post-emergence
Avena fatua (AVEFA) [6] = assay: Pre-emergence herbicidal glasshouse test; format: in vivo; conditions: 250 g/Ha, evaluated after 13 days
From the text: as §1

[7] = system: Alopecurus myosuroides (ALOMY); assay: Pre-emergence herbicidal glasshouse test; format: in vivo; conditions: 250 g/Ha, evaluated after 13 days
From the text: as §1

[8] = system: Echinochloa crus-galli (ECHCG); assay: Pre-emergence herbicidal glasshouse test; format: in vivo; conditions: 250 g/Ha, evaluated after 13 days
From the text: as §1

Setaria faberi (SETFA) [9] = assay: Pre-emergence herbicidal glasshouse test; format: in vivo; conditions: 250 g/Ha, evaluated after 13 days
From the text: as §1

Lolium perenne (LOLPE) [10] = assay: Pre-emergence herbicidal glasshouse test; format: in vivo; conditions: 250 g/Ha, evaluated after 13 days
From the text: as §1

`CC#Cc1cc(C)c(C2C(=O)CC3(CCN(S(=O)(=O)NC)CC3)CC2=O)c(C)c1` [Compound A3, 9-(2,6-dimethyl-4-prop-1-ynyl-phenyl)-N-methyl-8,10-dioxo-3-azaspiro[5.5]undecane-3-sulfonamide] was tested, and the “% phytotoxicity observed, Wheat” value (wheat crop plants; rate 30 g/ha) was 0%, the “% phytotoxicity observed, Wheat” value (wheat crop plants; rate 60 g/ha) was 0% and the “% phytotoxicity observed, Wheat” value (wheat crop plants; rate 60 g/ha + safener cloquintocet-mexyl (CQC) at 50 g/ha) was 0%. For the same molecule, the “damage to the wheat crop compared to prior art compound C1” value (wheat crop plants; summary of Table B3) was “significantly less damaging”, the “percentage damage caused to the plant, AVEFA” value (Avena fatua (AVEFA) [1]) was 5 (5=80-100%) and the “percentage damage caused to the plant, ALOMY” value [2] was 5 (5=80-100%). The “percentage damage caused to the plant, ECHCG” value [3] was 5 (5=80-100%), the “percentage damage caused to the plant, SETFA” value (Setaria faberi (SETFA) [4]) was 5 (5=80-100%) and the “percentage damage caused to the plant, LOLPE” value (Lolium perenne (LOLPE) [5]) was 5 (5=80-100%). The “% phytotoxicity observed, Barley” value (barley crop plants; rate 30 g/ha) was 0%, the “% phytotoxicity observed, Barley” value (barley crop plants; rate 60 g/ha) was 0% and the “damage to the barley crop compared to prior art compound C1” value (barley crop plants; summary of Table B3) was “significantly less damaging”. For the same molecule, the “percentage damage caused to the plant, AVEFA” value (Avena fatua (AVEFA) [6]) was 5 (5=80-100%), the “percentage damage caused to the plant, ALOMY” value [7] was 5 (5=80-100%) and the “percentage damage caused to the plant, ECHCG” value [8] was 5 (5=80-100%). For the same molecule, the “percentage damage caused to the plant, SETFA” value (Setaria faberi (SETFA) [9]) was 5 (5=80-100%) and the “percentage damage caused to the plant, LOLPE” value (Lolium perenne (LOLPE) [10]) was 5 (5=80-100%).
